Source: patent US8017124B2, “Use of DMBT1 for capturing sulphate and phosphate group exposing agents” (priority 2004, dated 2011)
Where two headings read alike, the source gives them in different places.

Assays:
[1] = biological target: T1, DMBT1pbs1 (Homo sapiens, UniProt Q9UGM3); type: binding; design: key: +++: no difference in aggregation compared to reference; ++: moderate inhibition of aggregation over the entire time course or maximal aggregation delayed by 1-5-min compared to reference; +: strong inhibition of aggregation over the entire time course or maximal aggregation delayed by 5-10 min compared to reference; −: complete inhibition of aggregation after 10 min
T1 construct: purchased Eurogentec, Belgium
Experimental: Streptococcus mutans (Ingbritt), Streptococcus gordonii (HG 222 and DSM20568), Escherichia coli (F7 and OM36-1), and Helicobacter pylori (ATCC 43504) were gown and processed as described earlier. Salmonella typhimurium (strain SF1399: wild type; strain SF1195: Rc chemotype; strain SF1567: Rd1 chemotype; strain SF1398: Re chemotype) were kindly provided by Dr. Ben Appelmelk from the Free University of Amsterdam, The Netherlands, and were grown and processed as previously described for E. coli. The bacteria were diluted in the buffers depicted previously to a final OD700 of 0.5 or 1.0 corresponding to about 0.5 and 1.0×10^9 cells/ml respectively.
For quantitative measurements of bacterial aggregation, we added 200 μl peptide stock solution (1 mg/ml in 10% DMSO) diluted with 300 μl TBS containing 0.1% v/v Tween 20 and 1 mM CaCl2 (TBS-TC) to 500 μl of the respective bacterial suspensions to obtain final peptide concentrations of […]. As controls, we used bacterial suspensions, to which 200 μl 10% (v/v %) DMSO in H2O and 300 μl TBS-TC were added. Bacterial aggregation was monitored by measuring the optical density at 700 nm in intervals of 1 min for 1 h in a spectrophotometer (UVICON 930, Kontron Instruments). For the semi-quantitative high-throughput competition assays, we first determined the allowed pH range for DMBT1pbs1-mediated aggregation of S. gordonii and E. coli by using TBS-TC adjusted with either HCl or NaOH. […] For monitoring competitive effects, we preincubated 20 μl of the DMBT1pbs1 stock solution (20 μg) with 20 μl of the respective substance solutions in 48-well microtiter plates at room temperature (RT) for 2 min. As reference served 20 μl 10% (v/v) DMSO solution in H2O mixed with 20 μl of the solvents of the respective substances. Afterwards, 100 μl of S. gordonii or E. coli (resuspended in TBS-TC or TBS-T, respectively, for the calcium-free assays) solution was added simultaneously to each well using a multichannel pipette. Bacterial aggregation was compared to the reference by visual inspection over a time course of 10 min. The scoring system was: (+++) no difference in aggregation compared to reference. (++) moderate inhibition of aggregation over the entire time course or maximal aggregation delayed by 1-5-min compared to reference; (+) strong inhibition of aggregation over the entire time course or maximal aggregation delayed by 5-10 min compared to reference; (−) complete inhibition of aggregation after 10 min. Each experiment was at least done in triplicate.
Sucrose, maltose, dextrose, and the various salts tested were standard reagents obtained from Merck or Sigma. […] The following substances were obtained from Sigma with catalogue numbers in brackets: heparansulfate (H-7640), chondroitinsulfate B (C-3788), azoxymethane (A-9517), N-nitrosodiethlylamine (N-0258), streptococcus sanguis LTA (L-3765), Staphylococcus aureus LTA (L-2515), Escherichia coli LPS (L-3012), Klebsiella pneumoniae LPS (L-1770), Salmonella typhimurium LPS (L-6511), Salmonella minnesota LPS (chemotype Rd1; L-9391), L-α-phosphatidylcholine (P-279), CUROSURF™ with 80 mg/ml phospholipids from pig surfactant (54 mg/ml phosphatidylcholine and 30-5 mg/ml D-palmitoylphosphatidylcholine; overall: 99% polar phospholipids and 1% proteins) was obtained from Dey (Napa; Italy), and sIgA was purchased from Sigma. The dNTPs and the dNTP-Mix were from Roche Diagnostics. The DNA used in all experiments was the 4.7-kb plasmid pEGFP-N1 from Clontech.

[2] = test system: Salmonella typhimurium; assay: Salmonella typhimurium binding to immobilized DMBT1 or peptide; conditions: Rd1 and Re chemotype versus wild type
Experimental: Salivary DMBT1 (salivary agglutinin; DMBT1^SAG; hereafter referred to as DMBT1) was obtained from parotid saliva of healthy volunteer donors collected with Lashley cups. For confirmatory experiments of DMBT1 interaction partners, initial studies with Salmonella strains, and HIV studies we used DMBT1 purified to about 95% homogeneity by the procedure described before. The concentration was determined by the BCA Protein Assay Kit (Pierce) according to the instructions of the manufacturer. […] For partial purification, 50 ml parotid saliva was incubated for 0.5 to 1 h in ice water, in order to promote the formation of a precipitate. After centrifugation for 20 min (4° C.; 5,000 g), the pellet was resuspended in 1.0 to 2.5 ml PBS. In order to determine the DMBT1 concentrations within the samples, serial dilutions of the preparations were compared to serial dilutions of purified recombinant DMBT1 (rDMBT1) by ELISA and the adjusted concentrations were confirmed by Western blotting (see below).
Streptococcus mutans (Ingbritt), Streptococcus gordonii (HG 222 and DSM20568), Escherichia coli (F7 and OM36-1), and Helicobacter pylori (ATCC 43504) were gown and processed as described earlier. […]

[3] = biological target: T2, rDMBT1 binding to HIV-gp120 (Homo sapiens, UniProt Q9UGM3, G1295S/L1336F/T649M); assay: Effects of DSS and dextran on rDMBT1 binding to HIV-gp120; conditions: 100 μg/ml DSS or dextran; rDMBT1 2 μg/ml; gp120 1 μg/ml
T2 construct: made in house; host or cells: rDMBT1 from T-REx-CHO
T2 sequence (Q9UGM3 20-2413 T649M/G1295S/L1336F): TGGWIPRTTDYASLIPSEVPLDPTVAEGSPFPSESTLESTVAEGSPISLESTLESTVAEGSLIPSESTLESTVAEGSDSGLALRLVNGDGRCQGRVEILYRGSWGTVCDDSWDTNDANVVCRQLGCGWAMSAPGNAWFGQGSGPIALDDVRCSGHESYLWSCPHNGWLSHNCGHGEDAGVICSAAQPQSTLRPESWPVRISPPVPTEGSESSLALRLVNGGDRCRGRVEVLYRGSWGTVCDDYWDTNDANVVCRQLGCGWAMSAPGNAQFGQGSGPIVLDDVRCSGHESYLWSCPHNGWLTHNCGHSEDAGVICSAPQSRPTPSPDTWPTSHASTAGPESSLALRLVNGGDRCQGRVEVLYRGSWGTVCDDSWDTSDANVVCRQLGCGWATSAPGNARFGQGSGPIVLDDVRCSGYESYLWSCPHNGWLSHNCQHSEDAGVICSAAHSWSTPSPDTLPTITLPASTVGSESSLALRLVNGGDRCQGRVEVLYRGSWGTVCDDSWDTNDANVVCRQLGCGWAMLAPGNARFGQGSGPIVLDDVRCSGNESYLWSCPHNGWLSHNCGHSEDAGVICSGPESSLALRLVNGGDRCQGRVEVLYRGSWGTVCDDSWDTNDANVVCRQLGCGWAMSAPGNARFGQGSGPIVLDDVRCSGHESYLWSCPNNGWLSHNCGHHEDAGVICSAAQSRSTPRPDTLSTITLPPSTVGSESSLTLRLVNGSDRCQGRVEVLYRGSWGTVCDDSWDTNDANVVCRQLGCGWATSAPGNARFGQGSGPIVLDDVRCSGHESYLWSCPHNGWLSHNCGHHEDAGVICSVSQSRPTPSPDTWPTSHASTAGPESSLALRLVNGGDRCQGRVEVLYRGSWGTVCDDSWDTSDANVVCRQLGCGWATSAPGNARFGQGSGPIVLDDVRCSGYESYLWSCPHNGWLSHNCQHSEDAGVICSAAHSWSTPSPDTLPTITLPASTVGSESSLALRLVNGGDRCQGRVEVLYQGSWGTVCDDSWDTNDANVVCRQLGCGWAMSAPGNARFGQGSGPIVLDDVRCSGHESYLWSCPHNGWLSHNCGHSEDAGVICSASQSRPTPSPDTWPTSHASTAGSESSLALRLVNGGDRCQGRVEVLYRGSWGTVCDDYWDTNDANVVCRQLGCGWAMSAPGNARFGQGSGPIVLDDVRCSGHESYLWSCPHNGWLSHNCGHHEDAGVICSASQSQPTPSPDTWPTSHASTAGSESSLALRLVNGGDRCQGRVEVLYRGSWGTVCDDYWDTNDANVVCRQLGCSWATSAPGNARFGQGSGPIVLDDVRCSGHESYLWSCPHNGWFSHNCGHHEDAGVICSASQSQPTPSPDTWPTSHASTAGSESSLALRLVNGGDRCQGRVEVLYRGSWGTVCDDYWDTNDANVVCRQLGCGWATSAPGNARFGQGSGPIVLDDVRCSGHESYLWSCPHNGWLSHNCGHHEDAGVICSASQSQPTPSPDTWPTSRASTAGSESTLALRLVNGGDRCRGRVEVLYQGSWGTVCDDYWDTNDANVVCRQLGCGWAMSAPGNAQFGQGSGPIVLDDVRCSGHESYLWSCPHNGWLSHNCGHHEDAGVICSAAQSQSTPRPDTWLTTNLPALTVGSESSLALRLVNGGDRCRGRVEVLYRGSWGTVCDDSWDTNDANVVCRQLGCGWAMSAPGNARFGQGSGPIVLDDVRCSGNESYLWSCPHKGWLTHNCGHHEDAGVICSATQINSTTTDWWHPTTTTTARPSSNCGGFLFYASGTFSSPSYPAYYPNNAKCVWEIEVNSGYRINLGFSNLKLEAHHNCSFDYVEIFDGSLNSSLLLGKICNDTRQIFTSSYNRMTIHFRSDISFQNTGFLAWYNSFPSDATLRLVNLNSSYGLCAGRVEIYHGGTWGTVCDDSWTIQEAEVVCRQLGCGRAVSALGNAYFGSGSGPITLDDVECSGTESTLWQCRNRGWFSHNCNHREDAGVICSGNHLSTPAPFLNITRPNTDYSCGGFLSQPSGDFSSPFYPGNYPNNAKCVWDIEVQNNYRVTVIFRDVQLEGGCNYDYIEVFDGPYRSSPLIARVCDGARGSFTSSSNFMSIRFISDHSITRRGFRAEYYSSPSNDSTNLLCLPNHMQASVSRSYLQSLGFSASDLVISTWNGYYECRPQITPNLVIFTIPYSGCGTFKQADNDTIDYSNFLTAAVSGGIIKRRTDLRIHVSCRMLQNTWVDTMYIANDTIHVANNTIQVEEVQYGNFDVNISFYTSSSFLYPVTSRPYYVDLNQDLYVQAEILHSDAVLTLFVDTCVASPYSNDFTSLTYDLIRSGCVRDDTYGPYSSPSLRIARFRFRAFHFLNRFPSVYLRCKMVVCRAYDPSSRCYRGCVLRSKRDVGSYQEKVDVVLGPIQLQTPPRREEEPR
Source text: Values are means of five independent experiments.

## O=S(=O)([O-])[O-].[Na+].[Na+] [Na2SO4]
[1]; substance 1 mM, pH co
  Aggregation of E. coli: +
  Aggregation of S. gordonii: +
[1]; substance 50-500 mM, pH co
  Aggregation of E. coli: −
  Aggregation of S. gordonii: −

## OC[C@H]1O[C@@](CO)(O[C@H]2O[C@H](CO)[C@@H](O)[C@H](O)[C@H]2O)[C@@H](O)[C@@H]1O [Sucrose]
[1]; substance 1-500 mM, pH co
  Aggregation of E. coli: +++
  Aggregation of S. gordonii: +++

## [Ba+2].[OH-].[OH-] [BaOH]
[1]; substance 5-50 mM, pH co
  Aggregation of E. coli: +++
  Aggregation of S. gordonii: +++

## Nc1ccn([C@H]2C[C@H](O)[C@@H](COP(=O)(O)OP(=O)(O)OP(=O)(O)O)O2)c(=O)n1 [dCTP]
[1]; substance 1-8 mM, pH co
  Aggregation of E. coli: ++
  Aggregation of S. gordonii: ++

## DMBT1: purified DMBT1 from saliva (salivary agglutinin)
[2]
  binding of Salmonella typhimurium chemotypes: Enhanced binding of the Rd1 and Re chemotype

## Chondroitin sulfate B
[1]; substance 1-5 mg/ml, pH co
  Aggregation of E. coli: −
  Aggregation of S. gordonii: −

## CN=[N+](C)[O-] [Azoxymethane (AOM), Azoxymethane]
[1]; substance 1-500 mM, pH co
  Aggregation of E. coli: +++
  Aggregation of S. gordonii: +++

## [Cl-].[Na+] [NaCL]
[1]
  Aggregation of E. coli: +++ and +
  Aggregation of S. gordonii: +++ and +

## CCN(CC)N=O [N-nitrosodiethylamine (DEN), N-nitrosodiethylamine]
[1]; substance 1-50 mM, pH co
  Aggregation of E. coli: +++
  Aggregation of S. gordonii: +++
[1]; substance 100-500 mM, pH co
  Aggregation of E. coli: ++
  Aggregation of S. gordonii: ++

## Heparan sulfate
[1]; substance 1-5 mg/ml, pH co
  Aggregation of E. coli: −
  Aggregation of S. gordonii: −

## Aprolinin
[1]; substance 1-5 mg/ml, pH co
  Aggregation of E. coli: +++
  Aggregation of S. gordonii: +++

## O=P([O-])([O-])[O-].[Na+].[Na+].[Na+] [Na3PO4]
[1]; substance 1 mM, pH co
  Aggregation of E. coli: ++
  Aggregation of S. gordonii: ++

## O=P([O-])(O)O.[K+] [KH2 PO4]
[1]; substance 1-10 mM, pH co
  Aggregation of E. coli: +
  Aggregation of S. gordonii: +

## O=[N+]([O-])[O-].[K+] [KNO3]
[1]; substance 500 mM, pH co
  Aggregation of E. coli: +
  Aggregation of S. gordonii: +
[1]; substance 1-100 mM, pH co
  Aggregation of E. coli: +++
  Aggregation of S. gordonii: +++

## OC[C@H]1O[C@H](O[C@H]2[C@H](O)[C@@H](O)C(O)O[C@@H]2CO)[C@H](O)[C@@H](O)[C@@H]1O (mixture of isomers) [Maltose]
[1]; substance 1-500 mM, pH co
  Aggregation of E. coli: +++
  Aggregation of S. gordonii: +++

## Nc1nc2c(ncn2[C@H]2C[C@H](O)[C@@H](COP(=O)(O)OP(=O)(O)OP(=O)(O)O)O2)c(=O)[nH]1 [dGTP]
[1]; substance 1-8 mM, pH co
  Aggregation of E. coli: ++
  Aggregation of S. gordonii: ++

## NH2-QGRVEVLYRGSWGTVC-COOH (H-QGRVEVLYRGSWGTVC-OH) [DMBT1-SRCRP2]
[2]
  binding of Salmonella typhimurium chemotypes: Enhanced binding of the Rd1 and Re chemotype

## O=P([O-])([O-])O.[K+].[K+] [K2HPO4]
[1]; substance 1 mM, pH co
  Aggregation of E. coli: ++
  Aggregation of S. gordonii: ++

## [Na+].[OH-] [NaOH]
[1]; substance 5-50 mM, pH co
  Aggregation of E. coli: +++
  Aggregation of S. gordonii: +++

## dextran
[3]
  inhibition of rDMBT1 binding to immobilized HIV-gp120: but not dextran, which lacks the sulfate groups, exerted an inhibitory effect

## NC(=O)CC[C@H](N)C(=O)O [Glutamine]
[1]; substance 1-250 mM, pH co
  Aggregation of E. coli: +++
  Aggregation of S. gordonii: +++

## Nc1ncnc2c1ncn2[C@H]1C[C@H](O)[C@@H](COP(=O)(O)OP(=O)(O)OP(=O)(O)O)O1 [dATP]
[1]; substance 1-8 mM, pH co
  Aggregation of E. coli: ++
  Aggregation of S. gordonii: ++

## Cc1cn([C@H]2C[C@H](O)[C@@H](COP(=O)(O)OP(=O)(O)OP(=O)(O)O)O2)c(=O)[nH]c1=O [dTTP]
[1]; substance 1-8 mM, pH co
  Aggregation of E. coli: ++
  Aggregation of S. gordonii: ++
